Consider one substance from patent US11478528B2, “Antimicrobial peptides against Listeria monocytogenes” (MATERIAS S.r.l., priority 2017, dated 2022).

Data set [1] can be described thus: Thermostability assay by Circular Dichroism. It counts as physicochemical. As to conditions: 15 to 90° C., 2 hours at 90° C., pH 6, 10 mM SDS. How it is done:
The prepared samples were incubated for two hours at 15° C. or 90° C. A CD analysis was performed on samples stored at 15° C. and before and after incubation for two hours at 90° C.
Background: CD spectra are sensitive to the conformation of chiral molecules.

Data set [2] is described as follows: pH stability assay by Circular Dichroism. How it is done:
The stability of the Bac-amp1 and IDR-1018 peptides was assessed by studying their secondary structure with Circular Dichroism (CD) spectroscopy in the presence of Sodium Dodecyl Sulfate (SDS) micelles at a concentration of 10 mM to mimic the condition of the cell membrane, in different temperature and pH conditions.
CD assays were performed with a Jasco J-810 Spectropolarimeter equipped with a thermostatted cuvette compartment. The samples were loaded into a 0.1 cm-long quartz cuvette (Hellma Analytics) and the spectrum was analyzed in the 190 nm to 250 nm range at temperatures of 15° C. or 90° C. for each sample.
The CD spectra were acquired at a scanning speed of 20 nm/min, and the recorded results represent an average of 5 scans. The spectra at 90° C. were collected at time zero and after 2 hours to evaluate the thermostability of peptides at high temperatures.
The average ellipticity of the residues ([θ], degrees cm^2 dmol^−1) was calculated using the following equation: [θ]=100θ/cn1 where θ represents ellipticity (m degrees), c is the concentration (mM) of the peptide, n is the number of residues. The secondary structure was calculated through the DICHROWEB site (Whitmore L and Wallace B A, 2004, Nucleic Acids Research 32: 668-673, Whitmore L and Wallace B A, 2008, Biopolymers 89:392-400, Lobley et al, 2002, Bioinformatics 18:211-212), using three different algorithms (SELCON3, CONTIN-LLe CDSSTR) (Sreerema N and Woody R W, 1993, Analytical Biochemistry 287:252-260; Sreerema N et al, 1999, Protein Science 8:370-380, Provencher S W and Glockner J, 1981, Biochemistry 20:33-37, Van Stokkum I H M et al, 1990, Analytical Biochemistry 191:110-118, Compton L A and Johnson W C, 1986, Analytical Biochemistry 155:155-167, Manavalan P and Johnson W C, 1987, Analytical Biochemistry 167:76-85, Sreerama N et al, 2000, Protein Science 8:370-380) and selecting as a comparison data set the SMP180 protein, which includes a high number of soluble and membrane proteins (Abdul-Gader A et al, 2011, Bioinformatics 27:1630-1636). […]

In data set [3] the test system is L. monocytogenes biofilms. Description: Antibiofilm activity assay with SEM on steel discs. The data set is classed as cell-based, Listeria monocytogenes. As to conditions: 50 μM. How it is done: The activity of the Bac-amp1 and IDR-1018 peptides on L. monocytogenes biofilms was further investigated by scanning electron microscopy (SEM).
Specifically, in this example the three-dimensional biofilm architecture, developed on stainless steel materials, was studied.
The Aisi 304 stainless steel discs with a diameter of 14.5 mm (SS) were treated with 600 μl of standardized inoculum in the presence or absence of each of the peptides at the concentration of 25 μM or 50 μM, or with control medium, according to the same method of Example 4a and repeatedly washed in sterile PBS to remove planktonic cells and fixated on a new plate with 1 ml of Karnovsky fixative containing 5% glutaraldehyde, 4% paraformaldehyde in buffer 0.064 M (Electronic Microscopy Science, Hatfield, Pa., USA) for 1 hour at 4° C. Thereafter, the samples were washed in 0.1 M cacodylate sodium buffer at pH 7.4 (Electronic Microscopy Science, Hatfield, Pa., USA) and the fixated cells were dehydrated in a series of aqueous acetone solutions at different concentrations, in particular 25%, 50%, 75% and 100%. The samples were glued onto polished aluminium sample holders (Electronic Microscopy Science, Hatfield, Pa., USA) and uniformly vacuum coated with a 20-nm thick gold layer with the K950 high-vacuum Turbo Evaporator and a K 350 coupling (Emitech Ltd, Ashford, UK). The coated samples were examined at the JEOL 6700 FEG Field Emission Electron Microscope (SEM Jeol, City and State) with magnification from 1000× to 5000×. For each sample, a number of images (5-10), acquired as electronic images were randomly analyzed.

“Also recorded” adds a separate entry of the source. Ends that are not written are not given here.

In the case of “VRLIVAVRIWRR-NH2 [IDR-1018, VRLIVAVRIWRR]”, the “thermostability (CD spectra)” value in data set [1] is recorded as “high thermostability”. Besides, in data set [2] (10 mM SDS, 24 hours at 37° C.), the “pH range with increase in the percentage of unordered random coil structure” value was 8.0-11.0. The “conformational stability at different pH” value in data set [2] (pH 1.0 to 11.0) was “higher conformational stability at pH 1.0; also recorded: greater conformational stability at pH 1.0”. For the same substance, the “cells on steel discs by SEM, 5000× image” value in data set [3] was “a greater number of cells”.
